Reference: patent US4343807A, “Derivatives of clavulanic acid, a process for their preparation and their use” (Beecham Group Limited, priority 1979, dated 1982)
≈ marks a conversion by molar mass, not a printed value.

Experiments:
Assay type in all cases: cell-based
Staph. Aureus Russell [1] = assay: MIC by standard microtitre technique (dilution in tryptone soy broth); details: Staphylococcus aureus, substance alone
Method: (§1) By a standard microtitre technique the MIC values for ampicillin alone, ampicillin and 9-N-(2-N-morpholinoethyl)aminodeoxyclavulanic acid and 9-N-(2-N-morpholinoethyl)aminodeoxyclavulanic acid alone were determined.
(§2) MIC μg/ml (dilution in tryptone soy broth)
(§3) By a standard microtitre technique the MIC values for ampicillin alone, ampicillin and 9-N-[3'-N-(2"-pyrrolidinoyl)propyl]aminodeoxyclavulanic acid and 9-N[3'-N-(2"-pyrrolidinoyl)propyl]aminodeoxyclavulanic acid alone were determined.

E. Coli JT39 = assay: as above; details: Escherichia coli, substance alone
Method: as §1, §2, §3

Kleb Aergenes E70 = assay: as above; details: Klebsiella aerogenes, substance alone
Method: as §1, §2, §3

Staph. Aureus Russell [2] = assay: Antibacterial activity, MIC (dilution in blood agar-heavy inoculum); details: Staphylococcus aureus
Source text: (§4) Antibacterial activity of 9-N-[3'-N-(2"-pyrrolidinonyl)propyl]aminodeoxyclavulanic acid
(§5) Dilution in blood agar-heavy inoculum

Strep. pneumoniae = assay: as above; details: Streptococcus pneumoniae
Source text: as §4, §5

Strep. pyogenes = assay: as above; details: Streptococcus pyogenes
Source text: as §4, §5

Staph. aureus Oxford = assay: as above; details: Staphylococcus aureus
Source text: as §4, §5

Structure (SMILES) | MIC (Staph. Aureus Russell [1]) | MIC (E. Coli JT39) | MIC (Kleb Aergenes E70) | MIC (Staph. Aureus Russell [2]) | MIC (Strep. pneumoniae) | MIC (Strep. pyogenes) | MIC (Staph. aureus Oxford)
CC1(C)S[C@@H]2[C@H](NC(=O)[C@H](N)c3ccccc3)C(=O)N2[C@H]1C(=O)O [Ampicillin, reference compound] | 1000 µg/mL (≈ 2860 µM) | > 2000 µg/mL | 1000 µg/mL (≈ 2860 µM) | – | – | – | –
O=C(O)[C@H]1/C(=C/CNCCN2CCOCC2)O[C@@H]2CC(=O)N21 [Example 1, 9-N-(2'-N-Morpholinoethyl)aminodeoxyclavulanic acid] | 16 µg/mL (≈ 51.4 µM) | 62 µg/mL (≈ 199 µM) | 500 µg/mL (≈ 1610 µM) | – | – | – | –
O=C(O)[C@H]1/C(=C/CNCCCN2CCCC2=O)O[C@@H]2CC(=O)N21 [Example 2, 9-N[3'-N-(2"-Pyrrolidinonyl)propyl]aminodeoxyclavulanic acid] | 16 µg/mL (≈ 49.5 µM) | 62 µg/mL (≈ 192 µM) | 500 µg/mL (≈ 1550 µM) | 5 µg/mL (≈ 15.5 µM) | 5 µg/mL (≈ 15.5 µM) | 1.25 µg/mL (≈ 3.87 µM) | 5 µg/mL (≈ 15.5 µM)
